Columns and labels:
[1] = system: C. albicans ATCC 90028 (code 145); settings: 0.02% albumine bovine serum, read after 24 h
Method: (§1) MICs were performed using the broth microdilution methodology following the NCCLS procedure (NCCLS Document M7-A4 Vol. 17 No. 2 January 1997) in presence of 0.02% albumine bovine serum with inocula of approximately 5×10^5 cfu/mL. The media employed included cation-adjusted Mueller-Hinton (MH) broth (Difco Laboratories, Detroit, Mich., USA) supplemented or not with 30% (v/v) bovine serum. Tests were read after 24 h incubation at 25-37° C.

[2] = system: E. faecalisVanA (code 560); settings: E. faecalis VanA code 560; 0.02% albumine bovine serum; read after 24 h
Method: as §1

[3] = system: E. faecalisVanS (code 559); settings: E. faecalis VanS code 559; 0.02% albumine bovine serum; read after 24 h
Method: as §1

[4] = system: E. faecium VanA (code 569); settings: 0.02% albumine bovine serum, read after 24 h
Method: as §1

[5] = system: Enterococcus faecium VanS (code 568); settings: E. faecium VanS code 568; 0.02% albumine bovine serum; read after 24 h
Method: as §1

[6] = system: Escherichia coli (code 47); settings: 0.02% albumine bovine serum, read after 24 h
Method: as §1

[7] = system: S. epidermidis ATCC12228 (code 147); settings: 0.02% albumine bovine serum, read after 24 h
Method: as §1

[8] = system: S. haemolyticus Met-R (code 1729); settings: 0.02% albumine bovine serum, read after 24 h
Method: as §1

[9] = system: S. haemolyticus Met-S (code 1730); settings: 0.02% albumine bovine serum, read after 24 h
Method: as §1

[10] = system: Staphylococcus aureus VISA (code 3798); settings: S. aureus VISA code 3798; 0.02% albumine bovine serum; read after 24 h
Method: as §1

[11] = system: Staphylococcus aureus VISA Met-R (code 3797); settings: S. aureus VISA Met-R code 3797; 0.02% albumine bovine serum; read after 24 h
Method: as §1

Row | SMILES | Minimal Inhibitory Concentrations [1] | Minimal Inhibitory Concentrations [2] | Minimal Inhibitory Concentrations [3] | Minimal Inhibitory Concentrations [4] | Minimal Inhibitory Concentrations [5] | Minimal Inhibitory Concentrations [6] | Minimal Inhibitory Concentrations [7] | Minimal Inhibitory Concentrations [8] | Minimal Inhibitory Concentrations [9] | Minimal Inhibitory Concentrations [10] | Minimal Inhibitory Concentrations [11]
1 | C=C1NC(=O)[C@H](C(C)C)NC(=O)[C@H](NC(=O)/C(=C/C)NC(=O)[C@@H](N)[C@@H](C)CC)CSC[C@@H](C(=O)N[C@H]2C(=O)N3CCC[C@H]3C(=O)NCC(=O)N[C@H](C(=O)N[C@H](C(=O)N[C@@H]3CSC[C@@H]4NC(=O)CNC(=O)[C@@H](CSC[C@@H]5NC(=O)[C@H](Cc6c[nH]cn6)NC(=O)[C@@H](CSC[C@@H](C(=O)NCCOC)NC5=O)NC4=O)NC(=O)CNC(=O)CNC(=O)CNC(=O)[C@H](CCC(=O)NCCOC)NC3=O)[C@@H](C)O)CS[C@H]2C)NC(=O)[C@H](Cc2c[nH]c3ccccc23)NC1=O [Compound 11] | 64 µg/mL | 16 µg/mL | 16 µg/mL | 8 µg/mL | 16 µg/mL | >128 µg/mL | 8 µg/mL | 32 µg/mL | 4 µg/mL | 4 µg/mL | 8 µg/mL
2 | C=C1NC(=O)[C@H](C(C)C)NC(=O)[C@H](NC(=O)/C(=C/C)NC(=O)[C@@H](N)[C@@H](C)CC)CSC[C@@H](C(=O)N[C@H]2C(=O)N3CCC[C@H]3C(=O)NCC(=O)N[C@H](C(=O)N[C@H](C(=O)N[C@@H]3CSC[C@@H]4NC(=O)CNC(=O)[C@@H](CSC[C@@H]5NC(=O)[C@H](Cc6c[nH]cn6)NC(=O)[C@@H](CSC[C@@H](C(=O)NCCN)NC5=O)NC4=O)NC(=O)CNC(=O)CNC(=O)CNC(=O)[C@H](CCC(=O)NCCN)NC3=O)[C@@H](C)O)CS[C@H]2C)NC(=O)[C@H](Cc2c[nH]c3ccccc23)NC1=O [Compound 7] | 64 µg/mL | 2 µg/mL | 4 µg/mL | 1 µg/mL | 1 µg/mL | >128 µg/mL | 1 µg/mL | 0.25 µg/mL | <0.125 µg/mL | 0.50 µg/mL | 1 µg/mL
3 | C=C1NC(=O)[C@H](C(C)C)NC(=O)[C@H](NC(=O)/C(=C/C)NC(=O)[C@@H](N)[C@@H](C)CC)CSC[C@@H](C(=O)N[C@H]2C(=O)N3CCC[C@H]3C(=O)NCC(=O)N[C@H](C(=O)N[C@H](C(=O)N[C@@H]3CSC[C@@H]4NC(=O)CNC(=O)[C@@H](CSC[C@@H]5NC(=O)[C@H](Cc6c[nH]cn6)NC(=O)[C@@H](CSC[C@@H](C(=O)Nc6cccc7ccccc67)NC5=O)NC4=O)NC(=O)CNC(=O)CNC(=O)CNC(=O)[C@H](CCC(=O)Nc4cccc5ccccc45)NC3=O)[C@@H](C)O)CS[C@H]2C)NC(=O)[C@H](Cc2c[nH]c3ccccc23)NC1=O [Compound 9] | 32 µg/mL | 16 µg/mL | 16 µg/mL | 16 µg/mL | 8 µg/mL | >128 µg/mL | 16 µg/mL | 16 µg/mL | 16 µg/mL | 32 µg/mL | 32 µg/mL
4 | C=C1NC(=O)[C@H](C(C)C)NC(=O)[C@H](NC(=O)/C(=C/C)NC(=O)[C@@H](N)[C@@H](C)CC)CSC[C@@H](C(=O)N[C@H]2C(=O)N3CCC[C@H]3C(=O)NCC(=O)N[C@H](C(=O)N[C@H](C(=O)N[C@@H]3CSC[C@@H]4NC(=O)CNC(=O)[C@@H](CSC[C@@H]5NC(=O)[C@H](Cc6c[nH]cn6)NC(=O)[C@@H](CSC[C@@H](C(=O)NCc6cccc(OC)c6)NC5=O)NC4=O)NC(=O)CNC(=O)CNC(=O)CNC(=O)[C@H](CCC(=O)NCc4cccc(OC)c4)NC3=O)[C@@H](C)O)CS[C@H]2C)NC(=O)[C@H](Cc2c[nH]c3ccccc23)NC1=O [Compound 6] | 32 µg/mL | 2 µg/mL | 2 µg/mL | 1 µg/mL | 2 µg/mL | >128 µg/mL | 2 µg/mL | >128 µg/mL | 2 µg/mL | 1 µg/mL | 2 µg/mL
5 | C=C1NC(=O)[C@H](C(C)C)NC(=O)[C@H](NC(=O)/C(=C/C)NC(=O)[C@@H](N)[C@@H](C)CC)CSC[C@@H](C(=O)N[C@H]2C(=O)N3CCC[C@H]3C(=O)NCC(=O)N[C@H](C(=O)N[C@H](C(=O)N[C@@H]3CSC[C@@H]4NC(=O)CNC(=O)[C@@H](CSC[C@@H]5NC(=O)[C@H](Cc6c[nH]cn6)NC(=O)[C@@H](CSC[C@@H](C(=O)N(C)C)NC5=O)NC4=O)NC(=O)CNC(=O)CNC(=O)CNC(=O)[C@H](CCC(=O)N(C)C)NC3=O)[C@@H](C)O)CS[C@H]2C)NC(=O)[C@H](Cc2c[nH]c3ccccc23)NC1=O [Compound 2] | 64 µg/mL | 16 µg/mL | 16 µg/mL | 16 µg/mL | 16 µg/mL | >128 µg/mL | 8 µg/mL | 32 µg/mL | 8 µg/mL | 4 µg/mL | 16 µg/mL
6 | C=CCNC(=O)CC[C@@H]1NC(=O)[C@H](NC(=O)[C@@H](NC(=O)[C@@H]2CS[C@@H](C)[C@@H](NC(=O)[C@@H]3CSC[C@@H](NC(=O)/C(=C/C)NC(=O)[C@@H](N)[C@@H](C)CC)C(=O)N[C@@H](C(C)C)C(=O)NC(=C)C(=O)N[C@@H](Cc4c[nH]c5ccccc45)C(=O)N3)C(=O)N3CCC[C@H]3C(=O)NCC(=O)N2)[C@@H](C)O)CSC[C@@H]2NC(=O)CNC(=O)[C@@H](CSC[C@@H]3NC(=O)[C@H](Cc4c[nH]cn4)NC(=O)[C@@H](CSC[C@@H](C(=O)NCC=C)NC3=O)NC2=O)NC(=O)CNC(=O)CNC(=O)CNC1=O [Compound 5] | 32 µg/mL | 8 µg/mL | 8 µg/mL | 8 µg/mL | 8 µg/mL | >128 µg/mL | 4 µg/mL | 32 µg/mL | 4 µg/mL | 2 µg/mL | 8 µg/mL
